Laboratory results taken from paper PMC8954204, “Synthesis and Evaluation of a ^18F-Labeled Ligand for PET Imaging of Colony-Stimulating Factor 1 Receptor” (Pharmaceuticals, 2022).

How the values were obtained:
[1] = ex vivo biodistribution in control, LPS and LPS+block mice; parameters: species or system ICR mice; conditions: for blood uptake / brain uptake / femur uptake / kidney uptake / liver uptake / muscle uptake / spleen uptake: 45 min after i.v. injection, n = 4
Procedure: Ex vivo biodistribution studies were performed in three groups of mice (control, LPS, and LPS+block groups) at 45 min after intravenous (i.v.) injection of [^18F]1. […] Therefore, we performed the ex vivo biodistribution studies at 45 min after injection of [^18F]1 (Table 2). […] The relatively low level of inhibition can be attributed to the injection route and time of the blocking agent, i.p. administration 5 min prior to radioligand injection, which might not have allowed time for sufficient blocking. However, most of the PET radioligands currently developed for CSF1R imaging have low uptake or high non-specific binding in the brains of rodents and non-human primates. […] In this context, further blocking studies of [^18F]1 need to be conducted using the optimized injection time points of the blocking agents and using other potent CSF1R inhibitors as the blocking agents. […] In addition, these biodistribution data matched with the whole-body PET images of the control and LPS mice (Figure S2).
ICR male mice aged between 5 and 6 weeks were used in this study. The mice were provided drinking water and a normal diet ad libitum and were maintained under a 12 h light-dark cycle at 24 ± 1 °C with 50% humidity. The LPS-treated mouse model was prepared by injecting LPS (10 mg/kg in saline) i.p. into mice, and all experiments were carried out on the third day after LPS injection. Tissue radioactivity was counted using an automatic gamma counter (PerkinElmer, Waltham, MA, USA). MicroPET/CT images were acquired using an Inveon microPET/CT scanner (Siemens Medical Solutions, Knoxville, TN, USA).
ICR mice were divided into three groups: control, LPS, and LPS+block groups (n = 4 per group). […] Control and LPS-treated mice were injected i.p. with 100 μL of vehicle (10% DMSO-saline) at 5 min prior to the radioligand injection. At 45 min after radioligand injection, mice were sacrificed by cervical dislocation, and the blood and major tissues (brain, muscle, femur, liver, spleen, and kidney) were separated, weighed, and counted. Data are expressed as a percentage of injected dose per gram of tissue (% ID/g).

[2] = dynamic microPET/CT imaging, whole brain time activity curve; assay type: in vivo, ICR mice; conditions: control and LPS mouse, whole brain TAC
Source text: Dynamic PET/CT images of control and LPS mice were acquired, and the brain uptake was higher in the LPS mouse than in the control mouse (Figure 4A). […] In the control mouse, there was uptake in the decreasing order of the thalamus, striatum, hypothalamus, frontal cortex, and cerebellum (Figure 4C). In the 5.5-week-old mice used in our study, the frontal cortex and cerebellum had similar levels of uptake, although the cerebral cortex has markedly higher CSF1R expression than does the cerebellum in older adult mice. In the LPS mouse, a pattern similar to that of the control mouse was observed, with high uptake in the thalamus and striatum, and intermediate to low uptake in the hypothalamus, cerebellum, and frontal cortex (Figure 4C).
Dynamic PET scans of mice (one control and one LPS) were initiated simultaneously with tail vein injection of [^18F]1 (7.4 ± 0.1 MBq/mouse) and performed for 60 min (15 s × 8 frames, 30 s × 10 frames, 60 s × 3 frames, 240 s × 5 frames, 300 s × 6 frames, 32 frames in total); CT images followed for 20 min. […]
Analysis of dynamic PET data was performed using the PMOD 3.308 software (PMOD Technologies, Zurich, Switzerland). […] Several volumes of interest (VOIs) were determined on the mouse brain template: whole brain, striatum (mean value of the left and right striata), thalamus, hypothalamus, frontal cortex, and cerebellum. […]

[3] = metabolism study, HPLC of brain homogenates and blood samples; assay type: in vivo, ICR mice; conditions: control mice
Procedure: In order to confirm that the brain uptake was due to the radioligand, we analyzed the brain homogenates and blood samples of control mice using HPLC. […] However, approximately 65% of the radioligand in the blood samples was converted to polar radiometabolites within 30 min after injection (Figure S3).
ICR mice (n = 1 per time point) were injected with [^18F]1 (18.5 MBq) via a tail vein. At 5 and 30 min after injection, mice were sacrificed, and samples of brain and blood were obtained. The samples were homogenized in 1 mL of acetonitrile and centrifuged. The supernatants were analyzed by HPLC using an analytical column eluted with a 45:55 mixture of 0.05 M ammonium formate (aq.) and acetonitrile at a flow rate of 1 mL/min. Eluates were monitored using a NaI(T1) radioactivity detector.

[4] = octanol-water partition coefficient; assay type: physicochemical; conditions: 1-octanol/water; read-out: log P (octanol-water partition coefficient)
Procedure: Radioligand [^18F]1 was dissolved in 800 μL 1-octanol and mixed with 800 μL water, vortexed vigorously for 5 min, and centrifuged. Two layers were separated, and 100 μL aliquots of the 1-octanol and aqueous layers were removed and counted. Samples from the 1-octanol and aqueous layers were repartitioned until consistent values were obtained. The log P is expressed as the logarithm of the ratio of the counts per minute from octanol versus that of water.

CSF1R [5] = target: T1, CSF1R (Homo sapiens, UniProt P07333); assay: binding study of radioligand on CSF1R-coated well plates
T1 construct: purchased Abcam
Procedure: A binding study of radioligand [^18F]1 for CSF1R was also performed using well plates coated with CSF1R.
A binding study of [^18F]1 for CSF1R was performed using detachable 96-well polystyrene plates (Nest Scientific, Rahway, NJ, USA). The plates were coated with 50 μL of CSF1R (200 μg/mL) in 0.05 M carbonate-bicarbonate buffer (pH 9.6). Non-coated plates were used for a control experiment. The CSF1R-coated and non-coated plates were incubated at 4 °C overnight and washed three times with PBS-T (20 mM PBS (pH 7.4) with 0.05% Tween-20). The unoccupied sites were blocked with blocking buffer (5% BSA in PBS-T) at room temperature for 1 h, and the plates were washed three times with PBS-T. [^18F]1 was dissolved in DMSO, and two-fold serial dilutions ranging from 1:100 to 1:400 were made from the radioligand solution. The diluted radioligand solutions were added to the CSF1R-coated and non-coated wells, which were then incubated at room temperature for 1 h. After incubation, the plates were washed three times with PBS-T. The wells were detached, and the radioligand bound to the wells was measured using a gamma counter and expressed as counts per minute (cpm). All experiments were performed in triplicate.

CSF1R [6] = test system: CSF1R; parameters: method as in PMID 33757319; conditions: rhesus monkey; cited from earlier work
CSF1R [7] = target: T1, CSF1R; assay: FRET-based Z'-LYTE kinase assay, binding affinity for CSF1R; assay type: biochemical; conditions: FRET-based method, 1 mM ATP, mean ± S.D. of three measurements
Procedure: The binding affinity of ligand 1 for CSF1R was measured using a fluorescence resonance energy transfer (FRET)-based method.
The final concentration of DMSO in the incubation mixture was 1%. The mixtures were incubated at room temperature for 1 h, followed by development reaction incubations at room temperature for 1 h. The fluorescence intensity of the incubation mixtures was measured (excitation, 400 nm; emission, 445 nm (donor) and 520 nm (acceptor)) using a Mithras^2 LB 943 monochromator multimode microplate reader (Berthold Technologies, Bad Wildbad, Germany), and the phosphorylation extent of the FRET-peptide was calculated. All experiments were performed in triplicate, and the IC50 values represent the average of three experimental determinations.

[8] = LPS+block mice (CPPC 1 mg/kg i.p. 5 min before)

T1 sequence (P07333 20-972, species assumed): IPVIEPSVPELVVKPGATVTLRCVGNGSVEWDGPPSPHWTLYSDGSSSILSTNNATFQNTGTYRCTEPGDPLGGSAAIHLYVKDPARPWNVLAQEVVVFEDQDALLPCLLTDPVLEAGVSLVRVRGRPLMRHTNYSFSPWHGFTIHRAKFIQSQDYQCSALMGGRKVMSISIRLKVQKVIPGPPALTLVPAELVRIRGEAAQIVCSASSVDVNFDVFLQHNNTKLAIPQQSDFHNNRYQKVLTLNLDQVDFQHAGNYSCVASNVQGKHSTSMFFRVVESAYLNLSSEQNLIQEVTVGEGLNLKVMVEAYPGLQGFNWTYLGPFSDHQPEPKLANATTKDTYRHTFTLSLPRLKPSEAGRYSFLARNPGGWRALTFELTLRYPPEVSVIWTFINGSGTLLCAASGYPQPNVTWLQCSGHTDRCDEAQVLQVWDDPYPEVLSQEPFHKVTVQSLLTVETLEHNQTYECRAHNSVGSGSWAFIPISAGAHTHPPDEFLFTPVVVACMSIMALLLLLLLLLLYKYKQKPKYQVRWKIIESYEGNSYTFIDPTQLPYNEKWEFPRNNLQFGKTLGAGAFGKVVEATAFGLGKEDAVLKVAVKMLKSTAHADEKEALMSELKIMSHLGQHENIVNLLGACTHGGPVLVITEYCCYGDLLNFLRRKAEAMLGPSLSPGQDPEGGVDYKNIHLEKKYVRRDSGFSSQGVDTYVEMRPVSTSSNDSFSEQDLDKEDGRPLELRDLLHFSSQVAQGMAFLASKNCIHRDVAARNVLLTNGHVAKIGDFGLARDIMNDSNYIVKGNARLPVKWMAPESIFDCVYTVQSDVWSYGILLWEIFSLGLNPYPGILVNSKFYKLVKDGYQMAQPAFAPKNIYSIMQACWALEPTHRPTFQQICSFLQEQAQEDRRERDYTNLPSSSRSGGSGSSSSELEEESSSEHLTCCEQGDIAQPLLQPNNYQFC

N#Cc1ccc(C(=O)Nc2ccc(N3CCN(CC[18F])CC3)cc2N2CCCCC2)o1 [[^18F]1, 5-cyano-N-(4-(4-(2-[^18F]fluoroethyl)piperazin-1-yl)-2-(piperidin-1-yl)phenyl)furan-2-carboxamide]
increase of brain uptake in LPS mice compared to control mice ([1]; 45 min after radioligand injection): 78%
blood uptake ([1]; LPS mice): 1.21 ± 0.11 % ID/g
brain uptake ([1]; LPS mice): 2.14 ± 0.19 % ID/g
femur uptake ([1]; LPS mice): 1.95 ± 0.44 % ID/g
kidney uptake ([1]; LPS mice): 2.23 ± 0.08 % ID/g
liver uptake ([1]; LPS mice): 6.04 ± 0.91 % ID/g
muscle uptake ([1]; LPS mice): 1.03 ± 0.07 % ID/g
spleen uptake ([1]; LPS mice): 2.47 ± 0.19 % ID/g
blood uptake [1, 8]: 1.30 ± 0.11 % ID/g
brain uptake [1, 8]: 1.67 ± 0.16 % ID/g
femur uptake [1, 8]: 2.11 ± 0.37 % ID/g
kidney uptake [1, 8]: 2.04 ± 0.10 % ID/g
liver uptake [1, 8]: 3.15 ± 0.62 % ID/g
muscle uptake [1, 8]: 1.20 ± 0.19 % ID/g
spleen uptake [1, 8]: 1.45 ± 0.13 % ID/g
blood uptake ([1]; control mice): 0.93 ± 0.05 % ID/g
brain uptake ([1]; control mice): 1.20 ± 0.06 % ID/g
femur uptake ([1]; control mice): 1.80 ± 0.09 % ID/g
kidney uptake ([1]; control mice): 1.97 ± 0.05 % ID/g
liver uptake ([1]; control mice): 6.87 ± 0.48 % ID/g
muscle uptake ([1]; control mice): 0.96 ± 0.10 % ID/g
spleen uptake ([1]; control mice): 1.58 ± 0.20 % ID/g
time of peak whole brain uptake after radioligand injection [2]: ≤ 3 min
radioligand in blood converted to polar radiometabolites ([3]; blood samples, within 30 min after injection): approximately 65%
state of radioligand in the brain ([3]; brain homogenates at 5 and 30 min after injection): intact
logP [4]: 2.3 ± 0.01
radioligand bound to CSF1R-coated wells relative to non-coated wells (control) (CSF1R [5]; 0.93 kBq radioligand): 3.31 fold
radioligand bound to CSF1R-coated wells relative to non-coated wells (control) (CSF1R [5]; 1.85 kBq radioligand): 5.07 fold
radioligand bound to CSF1R-coated wells relative to non-coated wells (control) (CSF1R [5]; 3.7 kBq radioligand): 7.14 fold

COc1ccc(COc2ccc(Cc3cnc(N)nc3N)cc2O[11CH3])cc1 [[^11C]GW2580, 5-(3-[^11C]methoxy-4-((4-methoxybenzyl)oxy)benzyl)pyrimidine-2,4-diamine]
blocking of brain uptake with GW2580 (CSF1R [6]): 30%

N#Cc1ccc(C(=O)Nc2ccc(N3CCN(CCF)CC3)cc2N2CCCCC2)o1 [Ligand 1, 5-Cyano-N-(4-(4-(2-fluoroethyl)piperazin-1-yl)-2-(piperidin-1-yl)phenyl)furan-2-carboxamide]
IC50 (CSF1R [7]): 3.42 ± 0.33 nM
